According to patent US20160129005A1, “ADENINE DERIVATIVES HAVING IMMUNOMODULATING ANTI-INFLAMMATORY AND ANALGESIC ACTIVITY” (MEDESTEA RESEARCH & PRODUCTION S.p.A., priority 2011, published 2016):
Several values for one entry are separate records, joined by “and”; a condition that tells them apart may be missing. Identical values can stand only once.

Columns and labels:
[1] = system: Male Sprague-Dawley rats; experiment: Neuropathic pain: SNI model (lesion of the sciatic nerve); format: in vivo, rat
Excerpt: We evaluated the effect of […] in a model of neuropathic pain: the model of lesion of the sciatic nerve. The characteristic feature of neuropathic pain is that both macroglia and microglia (the cells that support the neurons metabolically) can alter their phenotype (reactive gliosis) as a result of some traumatic-inflammatory peripheral events, duplicated in this model. These phenotypic and functional changes can become permanent and the perception of pain can continue even after its primary cause has disappeared. The cells react to the positive lesion by increasing the glial fibrillary acidic protein (GFAP) and the ionized calcium-binding adapter molecule (IBA1). Male Sprague-Dawley rats (250-300 g; Harlan, Italy) were divided into 5 groups.
Group I was treated with […] daily from day 1 to day 21; group II was treated daily with the drug from day 1 to day 7 and then again with a single dose on day 14; group III was treated with […] on day 1, day 7 and day 14; group IV was treated with only the vehicle and group V was submitted to a sham operation ([…]). […]
Behavioural tests were performed daily from day 0 to day 7 and then on alternate days until day 28. Mechanical allodynia was induced by von Frey filament stimulation and the onset of thermal hyperalgesia was measured using the Ugo Basile apparatus according to Hargreaves' method, 1988.

[2] = system: naive murine CD4+ cells; experiment: Activation of naive murine CD4+ T cells in vitro (CFSE, cytofluorimeter, ELISA); format: cell-based, mouse
Excerpt: The lymphocytes are cells of the immune defences that direct and amplify the response to attack. Their imbalance or malfunction is also at the root of autoimmune diseases. Successful increase in the ratio in favour of Treg cells can restore the equilibrium of the immune response and combat the resultant disorders. We analysed the activation of isolated naive murine CD4+ cells in the cytofluorimeter for the phenotype CD4+CD62L+CD44−CD25−. The cells were labelled with “5,6-carboxyfluorescein diacetate succinimyl ester” (CFSE) and we evaluated cellular proliferation in quantitative acquisitions with the cytofluorimeter based on the dilution of fluorescence, which depends on the proliferative activity of the cell.

[3] = system: diabetic C57BL/6 mice transplanted with BALB/c islets; experiment: Survival of allogenic pancreatic islets in murine transplant model; format: in vivo, mouse; settings: 9 mg/kg or 30 mg/kg i.p. daily; FIG. 24
Description: C57BL/6 mice were made diabetic by administration of streptozotocin (170 mg/kg) and, following transplant of allogenic pancreatic islets, were treated with […].
The pancreatic islets, isolated from the BALB/c mouse, were inoculated in the diabetic mouse according to the procedure described by Abde R et al. (Diabetes 51 (8): 2489-2495). The glycaemia values were measured daily for monitoring the functionality of the transplanted cells.
The significance of rejection of transplanted cells that occurred was attributed to glycaemia values above 250 mg/dl, obtained in two consecutive measurements. After the cells were implanted (day 0), the mice were treated with intraperitoneal injections of 9 mg/kg or 30 mg/kg of […] daily.
The combination of […] and Rapamycin, currently the most used of the immunosuppressive drugs, was tested on the same animal model.
Both drugs were administered 6 times (day 0, day 2, day 4, day 6, day 8, day 10); […] was administered at 2 doses.

[4] = system: C57BL/6 mice transplanted with BALB/c hearts; experiment: Murine heterotopic heart transplant model; format: in vivo, mouse
Description: The immunosuppressive potential of […] was tested on a heterotopic heart transplant model; hearts of BALB/c mice were transplanted into the abdominal cavity of C57BL/6 mice.
The beats of the heart were measured, twice weekly, by palpation; stopping of beating was regarded as a sign of transplant rejection.
Three different protocols were used for prolonging transplant survival times: the “short-term” protocol ([…] 9 mg/kg daily for 14 days), the “long-term” protocol ([…] 9 mg/kg every day until rejection), and the “Combo” protocol ([…] on alternate days: day 0, 2, 4, 6, 8, 10, 12, 14+Rapamycin 0.1 mg/kg from day 0 to day 10).
In the acute heart transplant models, the hearts of BALB/c were transplanted into the peritoneal cavity of C57BL/6 mice. The control mice invariably reject the transplant in 10 days (Ctrl: MST=7 days, n=12), (FIG. 26). The “short-term” protocol permitted indefinite survival (100 days) in 10 mice out of 12 (n=12; p=0.0001 vs. Ctrl), (FIG. 26). Similarly, the “long-term” protocol permitted indefinite survival in 8 mice out of 10 (n=10; p=0.002 vs Ctrl), and prolonged survival in the remaining 2 (16 days and 25 days; p=0.002 vs. Ctrl), (FIG. 26).
The histological sections of the hearts on day 7 of BALB/c mice, transplanted into a C57BL/6 host, and treated with the “short-term” protocol, were also analysed.

[5] = system: DBA/1J mice; experiment: Rheumatoid arthritis: type II collagen immunization; format: in vivo, mouse
Description: Rheumatoid arthritis (RA) is a chronic inflammatory disease that affects the joints in particular and is manifested by pain, stiffness and synovitis, which lead to destruction of the joint. Immunization of DBA/1J mice with type II collagen (CII) by intradermal injection, at the base of the tail, of 0.2 ml of an emulsion containing 2 mg/ml of bovine CII in complete Freund adjuvant induces T cells and autoantibodies specific to CII with clinical and histopathological signs that reproduce RA. Eighteen to twenty days after immunization, signs of inflammation appear, affecting one or more joints. At the first clinical signs of inflammation (inflammation of the digits and joints) with a score above 1.5 (Camps et al., 2005), we treated the animals with […] intraperitoneally (0.25 mg).
To establish the degree of infiltration of T cells in the arthritic lesions, sections fixed in formalin and embedded in paraffin were incubated with rabbit polyclonal anti-CD3 antibodies. After detection with peroxidase-labelled secondary antibodies, each sample was evaluated at 40× magnification and 3 immunoreactive “hot spots” were selected for counting the CD3^+ lymphocytes at 200× magnification.

## C=C(C=O)OC(C=O)n1cnc2c(N)ncnc21 (centres unmarked) [2-[1-(6-aminopurin-9-yl)-2-oxoethoxy]prop-2-enal]
[1]; 6 mg/kg and 30 mg/kg i.p., from first day until 7 days after end of treatment, FIGS. 10-15
  pain (mechanical allodynia, thermal hyperalgesia): reduces pain significantly
[1]; animals treated daily
  expression of the proteins of reactive gliosis Ibal and GFAP (immunohistochemical analysis): returns almost to the normal levels
[2]; 300 μM, FIG. 21
  number of proliferating cells (CFSE dilution): more than ten-fold reduction
[2]; ELISA in culture supernatant at 24 h
  secretion of interleukin-2: significantly reduces
[2]; FIG. 21
  expression of CD44 and shedding of L-selectin CD62L (cells CD44 positive, CD62L negative): significantly reduces
  side scatter of the cells (parameter of activation of CD4 cells): reduced
[3]
  rejection of transplanted islets (glycaemia above 250 mg/dl twice): no rejection up to day 100
[4]; long-term protocol
  prolonged survival in the remaining 2 mice: 16 days and 25 days
[4]; short-term protocol, day 7
  anti-FoxP3 labelling: did not show significant differences
  lymphocyte tissue infiltration (haematoxylin-eosin): absent
  presence of mature macrophages: completely inhibited
[4]; short-term protocol, day 7, vs controls
  B and T lymphocytes (anti-B220, anti-CD3): appear to decrease numerically
[4]; short-term protocol, Ctrl=2.0±0.003, p=0.007, FIG. 28C
  vasculopathy score: 0.3±0.3
[4]; short-term protocol, Ctrl=2.7±0.3, p=0.01, FIG. 28B
  score of degree of infiltration: 0.7±0.3
[5]; 0.25 mg i.p., FIG. 29A
  cartilage erosion (content of proteoglycans): significant reduction in cartilage erosion
[5]; 0.25 mg i.p., FIG. 29B
  CD3+ lymphocytes infiltrating the joint: significant reduction in CD3+ lymphocytes
[5]; 0.25 mg intraperitoneally, from score above 1.5, vs carrier, FIG. 29C
  clinical score: significant reduction in the clinical score
